How the values were obtained:
[1] = system: panel of breast cancer cell lines; assay: 3-day proliferation assays, panel summary; type: cell-based
Source text: As shRNA-mediated knockdown of MELK was previously reported to inhibit the proliferation of BBC cells, we next tested whether pharmacological inhibition of MELK would have similar effects. We treated a panel of breast cancer cell lines, including MDA-MB-468 and ZR-75-1 cells, with HTH-01-091 and other MELK inhibitors; despite our focus on basal-like breast cancers, we included luminal cell lines for comparison. […] We evaluated the inhibitors in longer-term (7-day) proliferation assays and still observed the same trend, and no clear difference between the breast cancer subtypes (Table 4). We authenticated our MDA-MB-468 line by short tandem repeat analysis, and repeated the proliferation assays using MDA-MB-468 cells from a second source to confirm the modest antiproliferative effects of the selective inhibitors (Table 4).

MKK6 = MKK6 (Homo sapiens, UniProt P52564); assay: ICKP radiometric kinase assay; type: biochemical; conditions: read-out: % AR (% kinase activity remaining)
ERK2 = ERK2 (Homo sapiens, UniProt P28482); assay: ICKP radiometric kinase assay; type: biochemical; conditions: read-out: % AR (% kinase activity remaining)
p38 alpha = p38 alpha (Homo sapiens, UniProt Q16539); assay: ICKP radiometric kinase assay; type: biochemical; conditions: read-out: % AR (% kinase activity remaining)
ERK8 = ERK8 (Homo sapiens, UniProt Q8TD08); assay: ICKP radiometric kinase assay; type: biochemical; conditions: read-out: % AR (% kinase activity remaining)
PKB alpha = PKB alpha (Homo sapiens, UniProt P31749); assay: ICKP radiometric kinase assay; type: biochemical; conditions: read-out: % AR (% kinase activity remaining)
ROCK 2 = ROCK 2 (Homo sapiens, UniProt O75116); assay: ICKP radiometric kinase assay; type: biochemical; conditions: read-out: % AR (% kinase activity remaining)
PKC zeta = PKC zeta (Homo sapiens, UniProt Q05513); assay: ICKP radiometric kinase assay; type: biochemical; conditions: read-out: % AR (% kinase activity remaining)
CAMK1 = CAMK1 (Homo sapiens, UniProt Q14012); assay: ICKP radiometric kinase assay; type: biochemical; conditions: read-out: % AR (% kinase activity remaining)
CDK9-Cyclin T1 = CDK9-Cyclin T1 (Homo sapiens, UniProt P50750); assay: ICKP radiometric kinase assay; type: biochemical; conditions: read-out: % AR (% kinase activity remaining)
PLK1 = PLK1 (Homo sapiens, UniProt P53350); assay: ICKP radiometric kinase assay; type: biochemical; conditions: read-out: % AR (% kinase activity remaining)
AMPK (hum) = assay: ICKP radiometric kinase assay; type: biochemical, human; conditions: 1 μM
NUAK1 = NUAK1 (Homo sapiens, UniProt O60285); assay: ICKP radiometric kinase assay; type: biochemical; conditions: read-out: % AR (% kinase activity remaining)
SIK2 = SIK2 (Homo sapiens, UniProt Q9H0K1); assay: ICKP radiometric kinase assay; type: biochemical; conditions: read-out: % AR (% kinase activity remaining)
CK1 delta = CK1 delta (Homo sapiens, UniProt P48730); assay: ICKP radiometric kinase assay; type: biochemical; conditions: read-out: % AR (% kinase activity remaining)
DYRK1A = DYRK1A (Homo sapiens, UniProt Q13627); assay: ICKP radiometric kinase assay; type: biochemical; conditions: read-out: % AR (% kinase activity remaining)
DYRK2 = DYRK2 (Homo sapiens, UniProt Q92630); assay: ICKP radiometric kinase assay; type: biochemical; conditions: read-out: % AR (% kinase activity remaining)
PIM1 = PIM1 (Homo sapiens, UniProt P11309); assay: ICKP radiometric kinase assay; type: biochemical; conditions: for remaining activity at 1 µM: read-out: % AR (% kinase activity remaining)
SRPK1 = SRPK1 (Homo sapiens, UniProt Q96SB4); assay: ICKP radiometric kinase assay; type: biochemical; conditions: read-out: % AR (% kinase activity remaining)
EIF2AK3 = EIF2AK3 (Homo sapiens, UniProt Q9NZJ5); assay: ICKP radiometric kinase assay; type: biochemical; conditions: read-out: % AR (% kinase activity remaining)
HIPK1 = HIPK1 (Homo sapiens, UniProt Q86Z02); assay: ICKP radiometric kinase assay; type: biochemical; conditions: read-out: % AR (% kinase activity remaining)
PAK2 = PAK2 (Homo sapiens, UniProt Q13177); assay: ICKP radiometric kinase assay; type: biochemical; conditions: read-out: % AR (% kinase activity remaining)
GCK = GCK (Homo sapiens, UniProt Q12851); assay: ICKP radiometric kinase assay; type: biochemical; conditions: read-out: % AR (% kinase activity remaining)
MAP4K3 = MAP4K3 (Homo sapiens, UniProt Q8IVH8); assay: ICKP radiometric kinase assay; type: biochemical; conditions: read-out: % AR (% kinase activity remaining)
MLK1 = MLK1 (Homo sapiens, UniProt P80192); assay: ICKP radiometric kinase assay; type: biochemical; conditions: read-out: % AR (% kinase activity remaining)
IRAK4 = IRAK4 (Homo sapiens, UniProt Q9NWZ3); assay: ICKP radiometric kinase assay; type: biochemical; conditions: read-out: % AR (% kinase activity remaining)
RIPK2 = RIPK2 (Homo sapiens, UniProt O43353); assay: ICKP radiometric kinase assay; type: biochemical; conditions: for remaining activity at 1 µM: read-out: % AR (% kinase activity remaining)
MPSK1 = MPSK1 (Homo sapiens, UniProt O75716); assay: ICKP radiometric kinase assay; type: biochemical; conditions: read-out: % AR (% kinase activity remaining)
CSK = CSK (Homo sapiens, UniProt P41240); assay: ICKP radiometric kinase assay; type: biochemical; conditions: read-out: % AR (% kinase activity remaining)
FGF-R1 = FGF-R1 (Homo sapiens, UniProt P11362); assay: ICKP radiometric kinase assay; type: biochemical; conditions: read-out: % AR (% kinase activity remaining)
IR = IR (Homo sapiens, UniProt P06213); assay: ICKP radiometric kinase assay; type: biochemical; conditions: read-out: % AR (% kinase activity remaining)
Chain of IR (P06213 28-1382): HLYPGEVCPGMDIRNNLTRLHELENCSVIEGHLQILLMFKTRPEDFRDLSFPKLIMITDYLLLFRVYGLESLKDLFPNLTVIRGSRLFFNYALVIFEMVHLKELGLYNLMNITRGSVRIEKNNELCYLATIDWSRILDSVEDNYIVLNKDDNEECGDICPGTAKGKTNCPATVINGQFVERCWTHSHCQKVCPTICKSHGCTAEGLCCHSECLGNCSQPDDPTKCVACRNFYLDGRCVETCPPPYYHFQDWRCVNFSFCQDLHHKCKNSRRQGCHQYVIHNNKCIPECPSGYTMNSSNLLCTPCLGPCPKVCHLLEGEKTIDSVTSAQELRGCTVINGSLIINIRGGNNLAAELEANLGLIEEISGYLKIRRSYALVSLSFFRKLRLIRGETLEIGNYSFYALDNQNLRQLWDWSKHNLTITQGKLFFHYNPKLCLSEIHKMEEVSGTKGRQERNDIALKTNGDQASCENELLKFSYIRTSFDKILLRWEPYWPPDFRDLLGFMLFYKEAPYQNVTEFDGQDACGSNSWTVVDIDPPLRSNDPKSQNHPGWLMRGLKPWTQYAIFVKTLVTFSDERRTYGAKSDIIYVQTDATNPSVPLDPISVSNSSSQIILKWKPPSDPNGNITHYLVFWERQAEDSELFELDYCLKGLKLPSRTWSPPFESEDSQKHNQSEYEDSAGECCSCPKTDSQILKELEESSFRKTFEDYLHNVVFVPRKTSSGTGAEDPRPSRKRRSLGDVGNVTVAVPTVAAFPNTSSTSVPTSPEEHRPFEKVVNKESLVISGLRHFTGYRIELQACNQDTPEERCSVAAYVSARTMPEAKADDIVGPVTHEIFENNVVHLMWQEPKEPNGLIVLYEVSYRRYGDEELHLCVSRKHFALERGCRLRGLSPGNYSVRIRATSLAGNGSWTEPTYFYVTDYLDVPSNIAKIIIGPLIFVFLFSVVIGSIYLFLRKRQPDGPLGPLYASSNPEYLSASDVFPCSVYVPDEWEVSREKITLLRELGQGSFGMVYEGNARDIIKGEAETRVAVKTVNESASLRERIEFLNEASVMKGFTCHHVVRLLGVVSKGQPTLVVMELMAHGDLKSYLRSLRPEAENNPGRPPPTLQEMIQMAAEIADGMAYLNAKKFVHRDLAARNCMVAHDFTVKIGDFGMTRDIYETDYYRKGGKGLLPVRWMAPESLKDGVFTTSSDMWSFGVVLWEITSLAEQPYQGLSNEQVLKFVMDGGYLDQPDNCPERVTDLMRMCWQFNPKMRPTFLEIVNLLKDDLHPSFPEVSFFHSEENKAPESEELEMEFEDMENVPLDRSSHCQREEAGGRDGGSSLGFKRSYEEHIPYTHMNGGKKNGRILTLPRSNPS

Chain of PIM1 (P11309 whole entry, species assumed): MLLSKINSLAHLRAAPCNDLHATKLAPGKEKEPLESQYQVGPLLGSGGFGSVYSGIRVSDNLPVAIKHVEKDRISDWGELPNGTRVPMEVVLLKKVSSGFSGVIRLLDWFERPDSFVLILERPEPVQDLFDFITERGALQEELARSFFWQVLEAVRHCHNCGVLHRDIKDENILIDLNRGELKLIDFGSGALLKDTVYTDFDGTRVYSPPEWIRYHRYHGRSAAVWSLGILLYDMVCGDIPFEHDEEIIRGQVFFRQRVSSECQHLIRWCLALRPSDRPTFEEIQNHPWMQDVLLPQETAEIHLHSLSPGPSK
Chain of RIPK2 (O43353 whole entry, species assumed): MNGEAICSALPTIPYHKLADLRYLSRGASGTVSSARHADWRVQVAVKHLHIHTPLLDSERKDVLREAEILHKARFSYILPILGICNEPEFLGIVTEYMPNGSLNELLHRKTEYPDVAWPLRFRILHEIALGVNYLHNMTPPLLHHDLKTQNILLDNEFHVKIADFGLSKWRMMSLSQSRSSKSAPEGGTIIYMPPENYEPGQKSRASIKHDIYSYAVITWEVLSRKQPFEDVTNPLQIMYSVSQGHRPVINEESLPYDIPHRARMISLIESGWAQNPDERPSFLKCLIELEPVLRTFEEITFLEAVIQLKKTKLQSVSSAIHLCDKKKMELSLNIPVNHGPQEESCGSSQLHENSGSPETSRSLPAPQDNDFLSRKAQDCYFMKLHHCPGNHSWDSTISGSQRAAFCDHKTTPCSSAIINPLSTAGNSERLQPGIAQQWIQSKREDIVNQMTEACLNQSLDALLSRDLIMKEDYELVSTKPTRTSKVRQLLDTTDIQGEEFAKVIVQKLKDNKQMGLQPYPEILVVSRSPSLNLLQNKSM
Chain of IRAK4 (Q9NWZ3 whole entry): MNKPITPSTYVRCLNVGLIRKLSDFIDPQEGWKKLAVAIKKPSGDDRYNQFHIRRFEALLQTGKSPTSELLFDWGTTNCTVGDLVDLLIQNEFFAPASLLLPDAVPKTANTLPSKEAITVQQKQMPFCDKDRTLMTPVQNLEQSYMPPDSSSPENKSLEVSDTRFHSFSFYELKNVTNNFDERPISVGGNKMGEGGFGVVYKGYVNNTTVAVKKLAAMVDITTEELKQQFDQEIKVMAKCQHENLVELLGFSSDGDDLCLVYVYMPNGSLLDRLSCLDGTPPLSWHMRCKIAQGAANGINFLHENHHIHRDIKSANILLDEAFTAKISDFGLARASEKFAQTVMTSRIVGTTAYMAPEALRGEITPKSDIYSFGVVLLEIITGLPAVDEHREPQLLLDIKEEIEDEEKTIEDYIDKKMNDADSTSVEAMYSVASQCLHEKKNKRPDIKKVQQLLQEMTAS
Chain of HIPK1 (Q86Z02 whole entry): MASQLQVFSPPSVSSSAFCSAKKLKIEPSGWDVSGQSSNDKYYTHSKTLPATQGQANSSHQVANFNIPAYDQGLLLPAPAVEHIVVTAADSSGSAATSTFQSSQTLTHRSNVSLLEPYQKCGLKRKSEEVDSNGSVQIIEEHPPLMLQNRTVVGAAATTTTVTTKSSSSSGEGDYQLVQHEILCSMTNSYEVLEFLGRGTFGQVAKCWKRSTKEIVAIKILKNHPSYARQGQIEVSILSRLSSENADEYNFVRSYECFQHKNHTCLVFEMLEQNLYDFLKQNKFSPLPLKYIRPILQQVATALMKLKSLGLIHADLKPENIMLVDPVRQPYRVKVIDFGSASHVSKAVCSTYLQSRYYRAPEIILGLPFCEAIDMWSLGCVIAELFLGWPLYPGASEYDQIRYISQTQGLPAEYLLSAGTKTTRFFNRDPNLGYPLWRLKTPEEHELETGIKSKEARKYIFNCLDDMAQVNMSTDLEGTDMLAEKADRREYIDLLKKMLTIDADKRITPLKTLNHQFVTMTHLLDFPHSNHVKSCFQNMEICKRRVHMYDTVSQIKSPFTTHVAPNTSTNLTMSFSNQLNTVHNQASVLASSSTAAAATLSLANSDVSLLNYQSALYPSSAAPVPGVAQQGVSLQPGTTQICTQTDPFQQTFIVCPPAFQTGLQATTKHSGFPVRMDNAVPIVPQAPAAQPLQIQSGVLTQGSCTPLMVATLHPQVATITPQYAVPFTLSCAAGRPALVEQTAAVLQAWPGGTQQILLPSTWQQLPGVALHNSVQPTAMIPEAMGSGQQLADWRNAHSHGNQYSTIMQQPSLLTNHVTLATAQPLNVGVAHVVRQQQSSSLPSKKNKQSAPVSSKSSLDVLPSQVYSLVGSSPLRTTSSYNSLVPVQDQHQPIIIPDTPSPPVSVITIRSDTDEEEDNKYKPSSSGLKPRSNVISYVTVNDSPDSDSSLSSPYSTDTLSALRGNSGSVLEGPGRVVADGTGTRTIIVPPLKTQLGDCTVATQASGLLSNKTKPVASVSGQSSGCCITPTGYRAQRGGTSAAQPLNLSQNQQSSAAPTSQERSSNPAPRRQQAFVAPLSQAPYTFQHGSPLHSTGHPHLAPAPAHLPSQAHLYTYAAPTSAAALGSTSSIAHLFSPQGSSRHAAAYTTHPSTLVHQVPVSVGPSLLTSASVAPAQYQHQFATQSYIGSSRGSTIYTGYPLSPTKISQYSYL
Chain of ERK8 (Q8TD08 whole entry): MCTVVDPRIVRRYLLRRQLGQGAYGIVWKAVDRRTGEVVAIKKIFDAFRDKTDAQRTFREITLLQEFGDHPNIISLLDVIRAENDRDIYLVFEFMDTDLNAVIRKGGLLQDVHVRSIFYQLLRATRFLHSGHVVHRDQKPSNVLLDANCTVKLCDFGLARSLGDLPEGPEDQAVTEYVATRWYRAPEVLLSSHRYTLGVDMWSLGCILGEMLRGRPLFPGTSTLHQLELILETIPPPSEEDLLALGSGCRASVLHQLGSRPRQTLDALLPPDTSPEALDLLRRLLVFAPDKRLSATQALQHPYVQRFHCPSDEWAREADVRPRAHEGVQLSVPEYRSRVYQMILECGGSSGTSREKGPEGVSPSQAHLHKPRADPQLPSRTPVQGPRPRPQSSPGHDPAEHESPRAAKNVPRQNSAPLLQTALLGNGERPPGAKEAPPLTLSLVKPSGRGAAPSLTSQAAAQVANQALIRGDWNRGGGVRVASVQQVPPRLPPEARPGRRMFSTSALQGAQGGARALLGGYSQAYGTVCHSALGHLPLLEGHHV
Chain of PLK1 (P53350 whole entry): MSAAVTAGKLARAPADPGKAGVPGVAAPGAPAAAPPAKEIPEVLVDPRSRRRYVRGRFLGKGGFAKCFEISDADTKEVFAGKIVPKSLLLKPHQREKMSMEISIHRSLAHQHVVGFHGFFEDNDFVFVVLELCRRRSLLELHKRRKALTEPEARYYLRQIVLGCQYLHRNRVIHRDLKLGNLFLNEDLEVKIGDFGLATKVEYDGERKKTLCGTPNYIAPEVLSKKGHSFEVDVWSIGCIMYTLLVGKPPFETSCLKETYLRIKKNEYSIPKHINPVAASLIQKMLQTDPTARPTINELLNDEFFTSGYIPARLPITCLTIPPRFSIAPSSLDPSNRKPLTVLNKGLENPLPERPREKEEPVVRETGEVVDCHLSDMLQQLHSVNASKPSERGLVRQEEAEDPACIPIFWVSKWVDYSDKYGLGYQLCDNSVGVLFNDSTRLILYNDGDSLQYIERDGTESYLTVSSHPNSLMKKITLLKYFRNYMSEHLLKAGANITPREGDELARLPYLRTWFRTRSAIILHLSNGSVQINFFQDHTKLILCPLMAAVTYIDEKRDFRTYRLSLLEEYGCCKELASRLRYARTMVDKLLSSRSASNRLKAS

Row | Structure (SMILES) | remaining activity at 1 µM (MKK6) [%] | remaining activity at 1 µM (ERK2) [%] | remaining activity at 1 µM (p38 alpha) [%] | remaining activity at 1 µM (ERK8) [%] | remaining activity at 1 µM (PKB alpha) [%] | remaining activity at 1 µM (ROCK 2) [%] | remaining activity at 1 µM (PKC zeta) [%] | remaining activity at 1 µM (CAMK1) [%] | remaining activity at 1 µM (CDK9-Cyclin T1) [%] | remaining activity at 1 µM (PLK1) [%] | % AR (% kinase activity remaining) (AMPK (hum)) [%] | remaining activity at 1 µM (NUAK1) [%] | remaining activity at 1 µM (SIK2) [%] | remaining activity at 1 µM (CK1 delta) [%] | remaining activity at 1 µM (DYRK1A) [%] | remaining activity at 1 µM (DYRK2) [%] | remaining activity at 1 µM (PIM1) [%] | remaining activity at 1 µM (SRPK1) [%] | remaining activity at 1 µM (EIF2AK3) [%] | remaining activity at 1 µM (HIPK1) [%] | other results
1 | CN(C)C[C@H]1CC[C@H](N2C(=O)NCc3cnc4ccc(-c5cc(Cl)c(O)c(Cl)c5)cc4c32)CC1 [HTH-01-091, 9-(3,5-dichloro-4-hydroxyphenyl)-1-(trans-4-((dimethylamino)methyl)cyclohexyl)-3,4-dihydropyrimido[5,4 c]quinolin-2(1H)-one] | 99 | 93 | 84 | 24 | 101 | 82 | 96 | 93 | 92 | 95 | 34 | 66 | 79 | 36 | 23 | 18 | 1 | 94 | 114 | 24 | antiproliferative IC50 values, fold less potent than OTSSP167 [1]: at least 300 fold; IC50 (PIM1; radioactive filter-binding assay provided by the ICKP, read-out: Enzymatic IC50 PIM1): 60.6 nM; remaining activity at 1 µM (PAK2): 88%; remaining activity at 1 µM (GCK): 16%; remaining activity at 1 µM (MAP4K3): 55%; remaining activity at 1 µM (MLK1): 35%; remaining activity at 1 µM (IRAK4): 85%; remaining activity at 1 µM (RIPK2): 3%; IC50 (RIPK2; radioactive filter-binding assay provided by the ICKP, read-out: Enzymatic IC50 RIPK2): 42.5 nM; remaining activity at 1 µM (MPSK1): 107%; remaining activity at 1 µM (CSK): 76%; remaining activity at 1 µM (FGF-R1): 82%; remaining activity at 1 µM (IR): 100%
2 | CC(=O)c1cnc2ccc(-c3cc(Cl)c(O)c(Cl)c3)nc2c1N[C@H]1CC[C@H](CN(C)C)CC1 [OTSSP167] | 80 | 90 | 10 | 1 | 28 | 49 | 19 | 15 | 4 | 3 | 1 | 0 | 2 | 6 | 1 | 1 | 10 | 10 | 7 | 0 | IC50 ([1]; 72 h, most cell lines tested, read-out: half maximal killing): < 100 nM; remaining activity at 1 µM (PAK2): 74%; remaining activity at 1 µM (GCK): 0%; remaining activity at 1 µM (MAP4K3): 1%; remaining activity at 1 µM (MLK1): 1%; remaining activity at 1 µM (IRAK4): 7%; remaining activity at 1 µM (RIPK2): 4%; remaining activity at 1 µM (MPSK1): 5%; remaining activity at 1 µM (CSK): 9%; remaining activity at 1 µM (FGF-R1): 4%; remaining activity at 1 µM (IR): 2%
